Experimental data: the supplement of paper PMC11208160

Test: recombinant UMI read abundance after kanamycin selection (control-corrected) (log10(CPM+1)); higher = more efficient recombination; extreme values may be limits of the assay; sequences stand for … in AGTGCAGAGAAAATCGGCCAGTTTTCTCTGCCTGCAGTCCGCATGCCGTGGGACCCCTTGGGTTCTAACCTGTTGCCTAGATTTATGCAGCGGACTGCCTTTCTCCCAAAGTGATAAACCGG…AGGTTGGTTTCACT; site = the 11-nt donor
Outline: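 After plating on IPTG (0.07 mM) plus kanamycin, or unselected, in two replicates, recombinant UMIs were PCR-amplified across the donor–target junction and sequenced. The cells were Escherichia coli co-electroporated with a UMI-tagged donor and donor-binding-loop pair library and a target plasmid with a fixed target and T7-inducible IS621 bridge recombinase. Values are log10(CPM+1), with CPM averaged over replicates and scaled by control-derived factors.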

In order of rising “recombinant UMI read abundance (log10)” value:
1. GATAGACCATGGACCGGTTTTCCCGGTAATCCGTATTTGGC (site GATAGACCTGC)  0
2. ACACGAACATGGACCGGTTTTCCCGGTAATCCGTATTTGTC (site ACACGTACTGA)  0
3. ACGCGAACATGGACCGGTTTTCCCGGTAATCCGTATTTGTC (site ACCCGAACTGA)  0
4. AATGTGTCATGGACCGGTTTTCCCGGTAATCCGTATTTGAA (site AATGTGTCTGT)  0
5. AACGAGCCATGGACCGGTTTTCCCGGTAATCCGTATTTGGC (site AACGAGCCTGC)  0
6. TGTACACCATGGACCGGTTTTCCCGGTAATCCGTATTTGTC (site TGTACACCTGC)  0
7. GGGACATCATGGACCGGTTTTCCCGGTAATCCGTATTTGCT (site AGGACATCTAG)  0
8. AGCGCAGCATGGACCGGTTTTCCCGGTAATCCGTATTTGGG (site AGCACAGCTCC)  0
9. CCGTTTACATGGACCGGTTTTCCCGGTAATCCGTATTTGCT (site CCGTTTACTAG)  0
10. CGGGAACCATGGACCGGTTTTCCCGGTAATCCGTATTTGAA (site CGGGAACCTGT)  0
11. CCGTTTACATGGACCGGTTTTCCCGGTAATCCGTATTTGCT (site CCGTCTACTAG)  0
12. CTGCTGCCATGGACCGGTTTTCCCGGTAATCCGTATTTGCT (site CTGCTTCCTAG)  0
13. CACTACTCATGGACCGGTTTTCCCGGTAATCCGTATTTGCC (site CACTTCTCTGG)  0
14. GGCACTCCATGGACCGGTTTTCCCGGTAATCCGTATTTGAA (site GGCAATCCTTT)  0
15. TGTACACCATGGACCGGTTTTCCCGGTAATCCGTATTTGTC (site TGTACACCTGT)  0
16. TAAAGTCCATGGACCGGTTTTCCCGGTAATCCGTATTTGAA (site TAAAGTCCTTG)  0
17. TCGTCATCATGGACCGGTTTTCCCGGTAATCCGTATTTGAC (site TCGTCATCTGT)  0
18. GTGCATGCATGGACCGGTTTTCCCGGTAATCCGTATTTGGG (site GTGCATGCTGC)  0
19. AAATGGCCATGGACCGGTTTTCCCGGTAATCCGTATTTGCA (site CAATGGCCTTG)  0
20. AGCCTTTCATGGACCGGTTTTCCCGGTAATCCGTATTTGAA (site AGCCTTTCTAT)  0
21. GTGCCTGCATGGACCGGTTTTCCCGGTAATCCGTATTTGGT (site GTGCATGCTAC)  0.0028
22. CCCGGTGCATGGACCGGTTTTCCCGGTAATCCGTATTTGAT (site CCTGGTGCTAT)  0.00284
23. CGATCATCATGGACCGGTTTTCCCGGTAATCCGTATTTGCC (site CGATCATCTCG)  0.00333
24. ACTAGTGCATGGACCGGTTTTCCCGGTAATCCGTATTTGAT (site ACTAGTGCTAG)  0.00388
25. CGGACTCCATGGACCGGTTTTCCCGGTAATCCGTATTTGTG (site CGGAATCCTAA)  0.00428
26. CTGCTGCCATGGACCGGTTTTCCCGGTAATCCGTATTTGCT (site CTGCTACCTAG)  0.00624
27. TACTTGACATGGACCGGTTTTCCCGGTAATCCGTATTTGTT (site TACTTGACTAG)  0.00636
28. TATTTGGCATGGACCGGTTTTCCCGGTAATCCGTATTTGTT (site TATTTGGCTCA)  0.0085
29. ACAGTATCATGGACCGGTTTTCCCGGTAATCCGTATTTGCA (site ACAGTTTCTTA)  0.0131
30. AGCCTAGCATGGACCGGTTTTCCCGGTAATCCGTATTTGTT (site AGCCTTGCTAA)  0.0186
31. TATCCTTCATGGACCGGTTTTCCCGGTAATCCGTATTTGGT (site TAGCCTTCTAC)  0.0208
32. AGGTTCCCATGGACCGGTTTTCCCGGTAATCCGTATTTGTG (site AGGTTGCCTCA)  0.0234
33. ATGACACCATGGACCGGTTTTCCCGGTAATCCGTATTTGGT (site ATGACACCTAC)  0.0397
34. CTAAAATCATGGACCGGTTTTCCCGGTAATCCGTATTTGAC (site CTAGTATCTGT)  0.0803
35. TAACCTTCATGGACCGGTTTTCCCGGTAATCCGTATTTGGT (site TAGCCTTCTAC)  0.244
36. CGCCGTACATGGACCGGTTTTCCCGGTAATCCGTATTTGGT (site CGCCGTACTAT)  0.321
37. ATCCAGGCATGGACCGGTTTTCCCGGTAATCCGTATTTGAG (site ATCCATGCTCT)  0.382
38. AATGTGTCATGGACCGGTTTTCCCGGTAATCCGTATTTGAC (site AATATGTCTGT)  0.433
39. CAGTTGACATGGACCGGTTTTCCCGGTAATCCGTATTTGGG (site CAGTTGACTCC)  0.53
40. GTTCGAGCATGGACCGGTTTTCCCGGTAATCCGTATTTGCA (site GTTTGAGCTTG)  0.607
41. ACTCCGTCATGGACCGGTTTTCCCGGTAATCCGTATTTGAT (site ACTCCGTCTAT)  0.697
42. TATATCTCATGGACCGGTTTTCCCGGTAATCCGTATTTGAA (site TATATCTCTTT)  0.835
43. GAGTTCACATGGACCGGTTTTCCCGGTAATCCGTATTTGAT (site GAGCTCACTAT)  0.905
44. AGACAGCCATGGACCGGTTTTCCCGGTAATCCGTATTTGCA (site AGACAGCCTTG)  1.21
45. CGAAGCCCATGGACCGGTTTTCCCGGTAATCCGTATTTGAT (site CGAAGCCCTAT)  1.22
46. AAGCACGCATGGACCGGTTTTCCCGGTAATCCGTATTTGTG (site AAGCACGCTCA)  1.42
47. GATTGCACATGGACCGGTTTTCCCGGTAATCCGTATTTGAC (site GATTGCACTGT)  1.53
48. AATGAAACATGGACCGGTTTTCCCGGTAATCCGTATTTGCT (site AATGTAACTAG)  1.65
49. ACGTCATCATGGACCGGTTTTCCCGGTAATCCGTATTTGTT (site ACGTCATCTAA)  1.69
50. ATTAGAACATGGACCGGTTTTCCCGGTAATCCGTATTTGGC (site ATTAGAACTGC)  1.83
51. GCAGACACATGGACCGGTTTTCCCGGTAATCCGTATTTGAT (site GCAGACACTAT)  1.89
52. GAAGATTCATGGACCGGTTTTCCCGGTAATCCGTATTTGTT (site GAAGATCCTAA)  1.92
53. CGCACGACATGGACCGGTTTTCCCGGTAATCCGTATTTGCC (site CGCACGACTGG)  1.95
54. ACTAGTGCATGGACCGGTTTTCCCGGTAATCCGTATTTGAT (site ACTAGTGCTAT)  2.1
55. CAATGCTCATGGACCGGTTTTCCCGGTAATCCGTATTTGCA (site CAATGCTCTTG)  2.35
56. ATCGAATCATGGACCGGTTTTCCCGGTAATCCGTATTTGAA (site ATCGAATCTTT)  2.58
57. AGTGACTCATGGACCGGTTTTCCCGGTAATCCGTATTTGCG (site AGTGACTCTCG)  2.88
